5 compounds from article PMC9798004 (Frontiers in Psychiatry, 2022) can be followed below.

What all share (assay type): cell-based
One data set concerns the target T1, CHRM2 (Homo sapiens, UniProt P08172).
T1 sequence (P08172 1-466): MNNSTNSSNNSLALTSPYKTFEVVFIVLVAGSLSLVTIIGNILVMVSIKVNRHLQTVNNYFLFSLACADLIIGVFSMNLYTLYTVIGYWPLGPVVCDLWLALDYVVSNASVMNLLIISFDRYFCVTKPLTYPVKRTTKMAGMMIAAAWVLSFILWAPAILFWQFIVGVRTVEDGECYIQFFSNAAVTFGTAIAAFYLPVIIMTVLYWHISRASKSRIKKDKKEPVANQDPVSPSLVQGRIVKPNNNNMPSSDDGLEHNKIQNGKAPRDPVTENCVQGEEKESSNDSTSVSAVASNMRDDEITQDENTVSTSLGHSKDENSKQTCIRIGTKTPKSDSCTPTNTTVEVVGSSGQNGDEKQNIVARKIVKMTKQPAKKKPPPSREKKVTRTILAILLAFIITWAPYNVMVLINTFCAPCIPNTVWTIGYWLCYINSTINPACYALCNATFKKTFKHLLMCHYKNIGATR
The experiment in a line: PathHunter β-arrestin assay. Particulars: control agonist.

The next data set deals with CHRM3 (Homo sapiens, UniProt P20309).
Chain of CHRM3 (P20309 whole entry): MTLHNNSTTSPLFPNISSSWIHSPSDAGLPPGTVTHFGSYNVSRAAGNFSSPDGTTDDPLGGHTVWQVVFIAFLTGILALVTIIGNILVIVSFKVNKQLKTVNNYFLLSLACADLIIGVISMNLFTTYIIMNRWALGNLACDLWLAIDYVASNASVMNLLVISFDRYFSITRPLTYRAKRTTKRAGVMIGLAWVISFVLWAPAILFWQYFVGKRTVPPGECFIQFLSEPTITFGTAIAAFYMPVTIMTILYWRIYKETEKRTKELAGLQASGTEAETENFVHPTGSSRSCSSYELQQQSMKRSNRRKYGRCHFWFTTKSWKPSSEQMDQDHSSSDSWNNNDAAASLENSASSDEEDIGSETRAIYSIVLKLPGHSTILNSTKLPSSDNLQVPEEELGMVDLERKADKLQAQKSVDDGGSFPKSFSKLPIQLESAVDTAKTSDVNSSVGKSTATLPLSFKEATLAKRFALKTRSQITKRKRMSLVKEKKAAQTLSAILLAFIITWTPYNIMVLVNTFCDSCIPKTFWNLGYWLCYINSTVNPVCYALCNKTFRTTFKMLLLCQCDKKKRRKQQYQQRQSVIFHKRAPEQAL
A further data set has as its target T2, CHRM4 (Homo sapiens, UniProt P08173).
T2 construct: purchased Eurofins DiscoverX (PathHunter gpcrMAX)
The experiment in a line: PathHunter β-arrestin assay. The note with it: screen, control agonist; CHO, 37C, 2HR.

The target in the next data set is T3, CHRM5 (Homo sapiens, UniProt P08912).
T3 construct: purchased Eurofins DiscoverX (PathHunter gpcrMAX)
T3 sequence (P08912 whole entry): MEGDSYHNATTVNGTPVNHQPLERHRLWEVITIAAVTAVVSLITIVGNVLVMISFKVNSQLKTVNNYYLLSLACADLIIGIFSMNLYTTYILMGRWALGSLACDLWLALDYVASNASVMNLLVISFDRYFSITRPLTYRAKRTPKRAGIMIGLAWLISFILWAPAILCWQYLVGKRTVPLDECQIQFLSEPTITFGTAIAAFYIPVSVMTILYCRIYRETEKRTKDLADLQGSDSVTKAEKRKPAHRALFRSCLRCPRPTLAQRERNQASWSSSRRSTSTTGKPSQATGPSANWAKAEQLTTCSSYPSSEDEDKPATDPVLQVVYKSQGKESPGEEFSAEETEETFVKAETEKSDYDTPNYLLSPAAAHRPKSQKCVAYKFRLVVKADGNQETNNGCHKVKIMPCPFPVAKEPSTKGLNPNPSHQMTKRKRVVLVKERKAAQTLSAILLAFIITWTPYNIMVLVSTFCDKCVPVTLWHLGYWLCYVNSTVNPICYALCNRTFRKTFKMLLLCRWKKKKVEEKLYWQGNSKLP
The experiment in a line: PathHunter β-arrestin assay. The note with it: screen, control agonist; CHO, 37C, 2HR.

The target in another data set is T4, CNR1 (CB1) (Homo sapiens, UniProt P21554).
T4 construct: host or cells: CHO
T4 sequence (P21554 whole entry): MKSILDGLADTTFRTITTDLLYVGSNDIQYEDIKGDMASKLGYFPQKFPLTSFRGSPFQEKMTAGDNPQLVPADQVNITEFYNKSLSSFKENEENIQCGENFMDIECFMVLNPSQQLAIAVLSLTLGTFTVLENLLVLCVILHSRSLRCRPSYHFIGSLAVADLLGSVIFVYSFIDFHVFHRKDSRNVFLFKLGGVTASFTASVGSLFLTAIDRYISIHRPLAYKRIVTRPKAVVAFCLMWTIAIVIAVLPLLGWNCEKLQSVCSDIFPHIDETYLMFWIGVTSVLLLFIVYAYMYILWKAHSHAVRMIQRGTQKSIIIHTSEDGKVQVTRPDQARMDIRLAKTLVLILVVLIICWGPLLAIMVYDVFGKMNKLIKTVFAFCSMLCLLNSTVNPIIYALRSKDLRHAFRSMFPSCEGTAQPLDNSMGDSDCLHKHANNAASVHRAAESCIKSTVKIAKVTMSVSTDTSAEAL
The experiment in a line: PathHunter β-arrestin assay. Particulars: screen, control agonist; CHO, 37C, 2HR.

The target in another data set is T5, CNR2 (Homo sapiens, UniProt P34972).
T5 construct: purchased Eurofins DiscoverX (PathHunter gpcrMAX)
T5 sequence (P34972 whole entry): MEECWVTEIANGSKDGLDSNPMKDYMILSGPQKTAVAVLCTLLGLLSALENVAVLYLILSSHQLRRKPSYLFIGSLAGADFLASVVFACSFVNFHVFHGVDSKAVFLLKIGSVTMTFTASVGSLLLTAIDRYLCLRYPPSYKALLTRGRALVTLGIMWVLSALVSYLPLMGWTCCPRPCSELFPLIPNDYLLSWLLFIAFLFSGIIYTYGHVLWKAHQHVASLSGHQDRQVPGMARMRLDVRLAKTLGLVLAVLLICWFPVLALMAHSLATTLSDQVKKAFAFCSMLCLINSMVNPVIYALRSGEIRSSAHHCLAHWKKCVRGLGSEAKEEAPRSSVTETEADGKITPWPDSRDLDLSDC
The experiment in a line: PathHunter β-arrestin assay. Particulars: screen, control agonist; CHO, RT, 2HR.

Data set [1] has as its system AtT20 cells wildtype (WT). The experiment in a line: LDH release cytotoxicity assay. The note with it: 30 μM. As to the method:
AtT20 cells expressing either human CB1 (hCB1) or CB2 (hCB2) receptors or wildtype (WT) were grown to confluence in T75 cm^2 flasks in Dulbecco's modified eagle medium containing 10% fetal bovine serum, 100 U penicillin/streptomycin, and 80 μg/mL hygromicyin (Sigma-Aldrich/Merck; Castle Hill, NSW, Australia). Cells were plated in 96-well-microplates at 30,000 cells per well and allowed to adhere overnight in 5% CO2. The following morning, cells were treated with either vehicle (0.1% DMSO; negative control), 30 μM Δ^9-THC, or 30 μM AMB-FUBINACA. At 1 or 6 h, the amount of lactate dehydrogenase in the cell media was tested, and compared with positive control (lysed cells) as per manufacturer's instructions (Dojindo Molecular Technologies, Inc.; Rockville, MD, USA), with readings performed on a Clariostar Plus plate reader (BMG Labtech, Mornington, VIC, Australia). Experiments were performed in triplicate. In order to measure any accumulating LDH, media was not changed after initial incubation. Data is represented as means ± S.E.M. A two-way ANOVA with was performed on the data at each time point, with Tukey's multiple comparison test (α = 0.05). A p < 0.05 was considered statistically significant.
A general note: LDH in the medium is a marker of cell lysis.

Another data set has as its target T6, CRTH2 (Homo sapiens, UniProt Q9Y5Y4).
T6 construct: purchased Eurofins DiscoverX (PathHunter gpcrMAX)
The experiment in a line: PathHunter β-arrestin assay. Particulars: screen, control agonist; U2OS, RT, 2HR.

Another data set has as its target T7, CCR2 (Homo sapiens, UniProt P41597).
T7 construct: purchased Eurofins DiscoverX (PathHunter gpcrMAX)
The experiment in a line: PathHunter β-arrestin assay. The note with it: screen, control agonist; CHO, 37C, 2HR.

A further data set concerns the target T8, CCR1 (Homo sapiens, UniProt P32246).
T8 construct: purchased Eurofins DiscoverX (PathHunter gpcrMAX)
T8 sequence (P32246 1-355): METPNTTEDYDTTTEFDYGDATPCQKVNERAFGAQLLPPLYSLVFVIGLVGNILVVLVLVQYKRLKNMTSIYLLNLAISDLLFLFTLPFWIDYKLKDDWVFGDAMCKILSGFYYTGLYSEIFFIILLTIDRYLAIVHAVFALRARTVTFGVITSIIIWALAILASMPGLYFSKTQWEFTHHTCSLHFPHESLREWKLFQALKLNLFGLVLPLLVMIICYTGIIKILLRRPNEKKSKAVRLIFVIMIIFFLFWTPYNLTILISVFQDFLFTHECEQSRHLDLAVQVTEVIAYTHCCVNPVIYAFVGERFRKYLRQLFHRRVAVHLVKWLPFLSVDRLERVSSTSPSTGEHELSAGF
The experiment in a line: PathHunter β-arrestin assay. The note with it: screen, control agonist; CHO, 37C, 2HR.

Another data set deals with T9, CCR5 (Homo sapiens, UniProt P51681).
T9 construct: purchased Eurofins DiscoverX (PathHunter gpcrMAX)
T9 sequence (P51681 whole entry): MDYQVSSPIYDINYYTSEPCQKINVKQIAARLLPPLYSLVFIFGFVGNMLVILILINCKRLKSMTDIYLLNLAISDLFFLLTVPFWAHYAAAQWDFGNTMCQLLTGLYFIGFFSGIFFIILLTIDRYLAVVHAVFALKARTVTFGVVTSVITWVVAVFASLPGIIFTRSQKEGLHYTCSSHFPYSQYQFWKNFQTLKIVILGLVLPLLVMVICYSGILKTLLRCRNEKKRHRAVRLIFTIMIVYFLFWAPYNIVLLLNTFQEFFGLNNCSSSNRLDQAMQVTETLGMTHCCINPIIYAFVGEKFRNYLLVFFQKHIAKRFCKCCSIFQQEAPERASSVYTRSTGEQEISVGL
The experiment in a line: PathHunter β-arrestin assay. The note with it: screen, control agonist; CHO, 37C, 2HR.

Several values for one entry are separate records, joined by “and”; a condition that tells them apart may be missing. Equal entries are not always repeated.

T6 sequence (Q9Y5Y4 whole entry): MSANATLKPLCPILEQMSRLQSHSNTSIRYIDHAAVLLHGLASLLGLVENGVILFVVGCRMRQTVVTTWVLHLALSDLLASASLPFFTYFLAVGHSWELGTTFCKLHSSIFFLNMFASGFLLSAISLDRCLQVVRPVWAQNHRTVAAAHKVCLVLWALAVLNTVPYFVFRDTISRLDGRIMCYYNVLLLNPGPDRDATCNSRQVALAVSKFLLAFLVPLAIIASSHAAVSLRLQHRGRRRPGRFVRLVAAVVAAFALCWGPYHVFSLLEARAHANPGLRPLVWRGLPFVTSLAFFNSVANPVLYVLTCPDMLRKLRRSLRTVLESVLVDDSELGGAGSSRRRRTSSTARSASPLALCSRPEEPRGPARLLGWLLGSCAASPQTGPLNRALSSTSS
T2 sequence (P08173 whole entry): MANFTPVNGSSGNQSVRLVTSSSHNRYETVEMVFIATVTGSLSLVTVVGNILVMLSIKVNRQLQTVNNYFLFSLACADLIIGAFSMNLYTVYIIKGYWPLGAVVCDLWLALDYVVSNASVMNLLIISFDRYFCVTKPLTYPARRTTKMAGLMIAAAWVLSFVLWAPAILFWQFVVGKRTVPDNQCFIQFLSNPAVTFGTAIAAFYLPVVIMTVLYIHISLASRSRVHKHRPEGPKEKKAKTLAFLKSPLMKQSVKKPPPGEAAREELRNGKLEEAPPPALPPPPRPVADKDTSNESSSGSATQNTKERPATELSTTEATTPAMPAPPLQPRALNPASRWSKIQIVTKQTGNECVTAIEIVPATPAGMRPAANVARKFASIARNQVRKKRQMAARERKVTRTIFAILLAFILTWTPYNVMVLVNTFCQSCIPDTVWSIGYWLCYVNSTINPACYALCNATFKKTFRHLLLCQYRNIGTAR
T7 sequence (P41597 whole entry): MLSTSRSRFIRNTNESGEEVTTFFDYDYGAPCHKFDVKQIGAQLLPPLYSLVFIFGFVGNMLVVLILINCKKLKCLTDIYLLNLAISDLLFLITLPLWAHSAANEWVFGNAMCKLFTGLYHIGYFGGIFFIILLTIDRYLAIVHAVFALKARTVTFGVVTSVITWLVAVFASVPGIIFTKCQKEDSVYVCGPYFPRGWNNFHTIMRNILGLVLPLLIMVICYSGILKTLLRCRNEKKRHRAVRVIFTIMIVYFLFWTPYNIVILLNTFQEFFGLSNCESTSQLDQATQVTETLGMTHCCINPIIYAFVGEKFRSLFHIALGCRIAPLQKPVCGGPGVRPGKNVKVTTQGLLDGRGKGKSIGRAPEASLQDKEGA

Consider `CC(=O)OCC[N+](C)(C)C` [Acetylcholine], for which the EC80 (commonly the concentration needed for an effect of 80%) on CHRM2 (follow-up concentration-response assays) is 24817 nM; at CHRM2 (screen, CHO, 37C, 2HR) it was 24800 nM; at CHRM3, 3540 nM and 3539.3 nM; on CHRM4, 3910 nM; at CHRM5, 1030 nM.
On to `CCCCCCC(C)(C)c1ccc([C@@H]2C[C@H](O)CC[C@H]2CCCO)c(O)c1` [CP55940], for which the EC80 on CNR1 (CB1) was found to be 20.3 nM; at CNR2, 4.12 nM. Also, the “LDH in cell media, normalized to total LDH” value in [1] (1 h) was 28.90 ± 7.81%. The “LDH increase compared with vehicle” value in [1] (6 h) is reported as “no effect was observed”.
At CRTH2, `CCCCC[C@H](O)/C=C/[C@H]1C(=O)C[C@H](O)[C@@H]1C/C=C\CCCC(=O)O` [PGD2] registered an 80% effect concentration (EC80) of 23.8 nM.
CCL2: control agonist: the concentration for an effect of 80% (EC80) in the data set with CCR2 was determined as 6.98 nM.
For CCL3: control agonist, the EC80 came to 2.53 nM in the data set with CCR1 and 10.1 nM with CCR5.
